Tests used:
[1] = tested on: Botrvtis cinerea; test: Botrvtis cinerea/Tomato/Preventive (action against Botrytis on tomato); format: in vivo; settings: Solanum lycopersicum, 72 h, preventive spray, tomato plants cv. Roter Gnom, assessed 3 days after inoculation, read-out: inhibit fungal infestation
Experimental: (§1) Botrvtis cinerea/Tomato/Preventive (Action Against Botrytis on Tomato) 4 weeks old tomato plants cv. Roter Gnom are treated with the formulated test compound in a spray chamber. Two days after application tomato plants are inoculated by spraying a spore suspension on the test plants. After an incubation period of 3 days at 20° C. and 95% r. h. in a greenhouse the disease incidence is assessed.

[2] = tested on: Alternaria solani; test: Alternaria solani/Tomato/Preventive (action against Alternaria on tomato); format: in vivo; settings: 96 h, preventive spray, tomato plants cv. Roter Gnom, assessed 4 days after inoculation, read-out: inhibit fungal infestation
Experimental: as §1, with “Alternaria solani/Tomato/Preventive” for “Botrvtis cinerea/Tomato/Preventive”, “Alternaria” for “Botrytis”, “4” for “3”, “22° C./18°” for “20°”

[3] = tested on: Pyrenophora teres (Helminthosporium teres); test: Pyrenophora teres (Helminthosporium teres)/Barley/Preventive (action against net blotch on barley); format: in vivo; settings: 96 h, preventive spray, barley plants cv. Regina, assessed 4 days after inoculation, read-out: inhibit fungal infestation
Experimental: Pyrenophora teres (Helminthosporium teres)/Barley/Preventive (Action Against Net Blotch on Barley) 1-week-old barley plants cv. Regina are treated with the formulated test compound in a spray chamber. Two days after application barley plants are inoculated by spraying a spore suspension (2.6×10^4 conidia/ml) on the test plants. After an incubation period of 4 days at 20° C. and 95% r. h. the disease incidence is assessed.

[4] = tested on: Uncinula necator; test: Uncinula necator/Grape/Preventive (action against powdery mildew on grape); format: in vivo; settings: Erysiphe necator, 168 h, preventive spray, grape seedlings cv. Gutedel, assessed 7 days after inoculation, read-out: inhibit fungal infestation
Experimental: Uncinula necator/Grape/Preventive (Action Against Powdery Mildew on Grape) 5 weeks old grape seedlings cv. Gutedel are treated with the formulated test compound in a spray chamber. One day after application grape plants are inoculated by shaking plants infected with grape powdery mildew above the test plants. After an incubation period of 7 days at 24° C./22° C. and 70% r. h. under a light regime of 14/10 h (light/dark) the disease incidence is assessed.

[5] = tested on: Puccinia recondita; test: Puccinia recondita/Wheat/Preventive (action against brown rust on wheat); format: in vivo; settings: 264 h, preventive spray, wheat plants cv. Arina, assessed 11 days after inoculation, read-out: inhibit fungal infestation
Experimental: Puccinia recondita /Wheat/Preventive (Action Against Brown Rust on Wheat) 1 week old wheat plants cv. Arina are treated with the formulated test compound in a spray chamber. One day after application wheat plants are inoculated by spraying a spore suspension ([…] uredospores/ml) on the test plants. After an incubation period of 1 day at 20° C. and 95% r. h. plants are kept for 10 days 20° C./18° C. (day/night) and 60% r.h. in a greenhouse. The disease incidence is assessed 11 days after inoculation.

[6] = tested on: Maqnaporthe grisea (Pyricularia oryzae); test: whole plant or invertebrate; format: in vivo; settings: 144 h, read-out: inhibit fungal infestation

Structure (SMILES)	melting point [°C]	inhibition at 200 ppm [1] [%]	inhibition at 200 ppm [2] [%]	inhibition at 200 ppm [3] [%]	inhibition at 200 ppm [4] [%]	inhibition at 200 ppm [5] [%]	inhibition at 200 ppm [6] [%]
CSc1ccc(-c2c(C)n[nH]c(=O)c2-c2ncc(Cl)cc2Cl)nc1 [I.u.006, 4-(3,5-dichloro-pyridin-2-yl)-6-methyl-5-(5-methylsulfanyl-pyridin-2-yl)-2H-pyridazin-3-one]	229	–	–	–	–	–	–
CSc1ccc(-c2c(C)nnc(Cl)c2-c2ncc(Cl)cc2Cl)nc1 [I.u.008, 3-chloro-4-(3,5-dichloro-pyridin-2-yl)-6-methyl-5-(5-methylsulfanyl-pyridin-2-yl)-pyridazine]	163	≥ 80	≥ 80	≥ 80	≥ 80	–	–
COc1nnc(C)c(-c2ccc(SC)cn2)c1-c1ncc(Cl)cc1Cl [I.u.009, 4-(3,5-dichloro-pyridin-2-yl)-3-methoxy-6-methyl-5-(5-methylsulfanyl-pyridin-2-yl)-pyridazine]	170 to 171	≥ 80	–	–	–	≥ 80	–
CSc1ccc(-c2c(C)nnc(C)c2-c2ncc(Cl)cc2Cl)nc1 [I.u.010, 4-(3,5-dichloro-pyridin-2-yl)-3,6-dimethyl-5-(5-methylsulfanyl-pyridin-2-yl)-pyridazine]	–	–	–	≥ 80	–	–	≥ 80
